Experimental data as given in patent US7763602B2, “Pyrrole derivatives as antimycobacterial compounds” (priority 2002, dated 2010).
In brackets after ≈: the same amount, converted by molar mass.

What was measured:
Assay type in all cases: cell-based, Mycobacterium tuberculosis
[1] = tested on: M. tuberculosis H37Rv ATCC 27294; assay: In vitro growth inhibition assay, BACTEC 460 TB system; parameters: key: +: If ΔGI of test vial is less than that of the control vial the culture was sensitive to the test compound; details: final concentration 6.25 μg/ml
M. tuberculosis 27294 = assay: In vitro agar dilution assay (MIC), reference strain; details: for MIC (μg/ml) against M. tuberculosis-27294: Table I; for MIC: Mycobacterium tuberculosis, 27294, Table I, read-out: MIC (μg/ml) against M. tuberculosis-27294
[2] = tested on: M. tuberculosis clinical isolates, sensitive; assay: microbe, parasite or virus in culture; details: for MIC (μg/ml) against Clinical isolates Sensitive: Table I, agar dilution; for MIC: Mycobacterium tuberculosis, read-out: MIC (μg/ml) against Clinical isolates Sensitive

| Compound | Growth inhibition of M. tuberculosis 27294 [1] | MIC (μg/ml) against M. tuberculosis-27294 (M. tuberculosis 27294) [µg/mL] | MIC (μg/ml) against Clinical isolates Sensitive [2] | MIC (M. tuberculosis 27294) [µg/mL] | MIC [2] [µg/mL] |
| --- | --- | --- | --- | --- | --- |
| Cc1c(CN2CCN(Cc3ccc4c(c3)OCO4)CC2)cc(-c2ccccc2)n1NC(=O)c1cnccn1 [compound 29, N-(3-{[4-(2H-benzo[d]1,3-dioxolen-5-ylmethyl)piperazinyl]methyl}-2-methyl-5-phenylpyrrolyl)pyrazin-2-ylcarboxamide] | + | >16.0 | >16.0 µg/mL | – | – |
| CCC(CO)n1c(-c2ccccc2)cc(CN2CCSCC2)c1C (stereo not drawn) [compound 91, 2-[2-methyl-5-phenyl-3-(1,4-thiazaperhydroin-4-ylmethyl)pyrrolyl]butan-1-ol] | + | 4.0 (≈ 11.6 µM) | 4.0 to 8.0 µg/mL | – | – |
| COc1ccccc1N1CCN(Cc2cc(-c3ccc(Cl)cc3)n(-c3ccc(F)cc3F)c2C)CC1 [compound 45, 1-{[1-(2,4-difluorophenyl)-5-(4-chlorophenyl)-2-methylpyrrol-3-yl]methyl}-4-(2-methoxyphenyl)piperazine] | + | – | – | 0.5 (≈ 0.984 µM) | 0.5 to 2 (≈ 0.984 to 3.94 µM) |
| COc1ccccc1N1CCN(Cc2cc(C)n(NC(=O)c3cnccn3)c2-c2ccc(Cl)cc2)CC1 [compound 42, N-(2-(4-chlorophenyl)-3-{[4-(2-methoxyphenyl)piperazinyl]methyl}-5-methylpyrrolyl)pyrazin-2-ylcarboxamide] | + | 8.0 (≈ 15.5 µM) | 8.0 µg/mL (≈ 15.5 µM) | – | – |
| Cc1c(CN2CCN(Cc3ccc4c(c3)OCO4)CC2)cc(-c2ccc(Cl)cc2)n1-c1ccc(Cl)cc1 [Compound No. 8, 5-[(4-{[1,5-bis(4-chlorophenyl)-2-methylpyrrol-3-yl]methyl}piperazinyl)methyl]-2H-benzo[d]1,3-dioxolane] | + | 1.0 (≈ 1.87 µM) | 0.5 to 1.0 µg/mL | – | – |
| Cc1c(CN2CCN(c3ccc(F)cc3)CC2)cc(-c2ccccc2)n1NC(=O)c1cnccn1 [compound 25, N-(3-{[4-(4-fluorophenyl)piperazinyl]methyl}-2-methyl-5-phenylpyrrolyl)pyrazin-2-ylcarboxamide] | + | 2.0 (≈ 4.25 µM) | 2.0 to 4.0 µg/mL | – | – |
| COc1ccccc1N1CCN(Cc2cc(-c3ccccc3)n(-c3ccc(F)cc3F)c2C)CC1 [compound 52, 1-{[1-(2,4-difluorophenyl)-2-methyl-5-phenylpyrrol-3-yl]methyl}-4-(2-methoxyphenyl)piperazine] | + | – | – | 8 (≈ 16.9 µM) | 8 (≈ 16.9 µM) |
| Cc1c(CN2CCN(Cc3ccc4c(c3)OCO4)CC2)cc(-c2ccc(Cl)cc2)n1-c1ccc(F)cc1F [compound 50, 5-[(4-{[1-(2,4-difluorophenyl)-5-(4-chlorophenyl)-2-methylpyrrol-3-yl]-methyl}-piperazinyl)methyl]-2H-benzo[d]1,3-dioxolane] | + | 2.0 (≈ 3.73 µM) | 2.0 to 4.0 µg/mL | – | – |
| Cc1c(CN2CCN(Cc3ccc4c(c3)OCO4)CC2)cc(-c2ccccc2)n1NC(=O)c1ccncc1 [compound 17, N-(3-{[4-(2H-benzo[d]1,3-dioxolan-5-ylmethyl)piperazinyl]methyl}-2-methyl-5-phenylpyrrolyl)-4-pyridylcarboxamide] | + | 2.0 (≈ 3.92 µM) | 2.0 to 4.0 µg/mL | – | – |
| Cc1c(CN2CCSCC2)cc(-c2ccc(Cl)cc2)n1NC(=O)c1ccncc1 [compound 89, N-[5-(4-chlorophenyl)-2-methyl-3-(1,4-thiazaperhydroin-4-ylmethyl)pyrrolyl]-4-pyridylcarboxamide] | + | 1.0 (≈ 2.34 µM) | 2.0 to 8.0 µg/mL | – | – |
| Cc1c(CN2CCN(c3ccc(F)cc3)CC2)cc(-c2ccc(Cl)cc2)n1-c1ccc(Cl)cc1 [Compound No. 1, 1-{[1,5-bis(4-chlorophenyl)-2-methylpyrrol-3-yl]methyl}-4-(4-fluorophenyl) piperazine] | + | – | – | 0.5 (≈ 1.01 µM) | 0.5 to 2 (≈ 1.01 to 4.04 µM) |
| COc1ccccc1N1CCN(Cc2cc(-c3ccccc3)n(NC(=O)c3cnccn3)c2C)CC1 [compound 26, N-(3-{[4-(2-methoxyphenyl)piperazinyl]methyl}-2-methyl-5-phenylpyrrolyl) pyrazin-2-ylcarboxamide] | + | 1.0 (≈ 2.07 µM) | 2.0 µg/mL (≈ 4.14 µM) | – | – |
| Cc1cc(CN2CCN(c3ccccn3)CC2)c(-c2ccccc2)n1NC(=O)c1cnccn1 [compound 34, N-(3-{[4-(2-pyridyl)piperazinyl]methyl}-5-methyl-2-phenylpyrrolyl)pyrazin-2-ylcarboxamide] | + | 16.0 (≈ 35.3 µM) | 16.0-16.0 μg/ml | – | – |
| Cc1c(CN2CCN(c3ccc(F)cc3)CC2)cc(-c2ccccc2)n1NC(=O)c1ccncc1 [compound 11, N-(3-{[4-(4-fluorophenyl)piperazinyl]methyl}-2-methyl-5-phenylpyrrolyl)-4-pyridylcarboxamide] | + | 1.0 (≈ 2.13 µM) | 0.5 to 1.0 µg/mL | – | – |
| COc1ccccc1N1CCN(Cc2cc(C)n(-c3cccc4ccccc34)c2-c2ccc(Cl)cc2)CC1 [compound 63, 1-{[2-(4-chlorophenyl)-5-methyl-1-naphthylpyrrol-3-yl]methyl}-4-(2-methoxyphenyl)piperazine] | + | 8.0 (≈ 15.3 µM) | 4.0 to 8.0 µg/mL | – | – |
| Cc1cc(CN2CCN(c3ccc(F)cc3)CC2)c(-c2ccccc2)n1NC(=O)c1ccncc1 [compound 22, N-(3-{[4-(4-fluorophenyl)piperazinyl]methyl}-5-methyl-2-phenylpyrrolyl)-4-pyridylcarboxamide] | + | 2.0 (≈ 4.26 µM) | 2.0 to 4.0 µg/mL | – | – |
| Cc1c(CN2CCN(c3ccccn3)CC2)cc(-c2ccc(Cl)cc2)n1-c1ccc(F)cc1F [compound 47, 1-{[1-(2,4-difluorophenyl)-5-(4-chlorophenyl)-2-methylpyrrol-3-yl]methyl}-4-(2-pyridyl)piperazine] | + | – | – | 0.25 (≈ 0.522 µM) | 0.25 to 1 (≈ 0.522 to 2.09 µM) |
| Cc1c(CN2CCN(Cc3ccc4c(c3)OCO4)CC2)cc(-c2ccc(Cl)cc2)n1-c1cccc2ccccc12 [compound 62, 5-[(4-{[5-(4-chlorophenyl)-2-methyl-1-naphthylpyrrol-3-yl]methyl}-piperazinyl)methyl]-2H-benzo[d]1,3-dioxolane] | + | >16.0 | >16.0 µg/mL | – | – |
| Cc1ccc(Cl)cc1N1CCN(Cc2cc(-c3ccc(Cl)cc3)n(-c3ccc(Cl)cc3)c2C)CC1 [compound 10, 1-{[1,5-bis(4-chlorophenyl)-2-methylpyrrol-3-yl]methyl}-4-(5-chloro-2-methylphenyl) piperazine] | + | – | – | 1 (≈ 1.91 µM) | 1 to 2 (≈ 1.91 to 3.81 µM) |
